Data published in patent US20090264533A1, “Methods and Compositions for Modulating RHO-Mediated Gene Transcription” (priority 2005, published 2009).
Where “and” joins values, the source holds several entries; their conditions need not be identical. Equal values may be shown once. Entries after “also recorded” stand apart in the source; their conditions may differ. Read-outs that look alike come from different tables or passages of the source. Blank lines part the entries; values can stand above or below the compound they belong to.

Experiments:
ROCK = test: Luciferase expression stimulated by transfecting in the kinase ROCK; type: cell-based
[1] = tested on: Gα13/LARG/SRE transcriptional signaling pathway; test: Gα13QL/LARG-stimulated SRE.L luciferase reporter assay (HTS) in HEK293T cells; type: cell-based, human; settings: for Inhibition of G13/LARG-stimulated rho transcriptional signaling: FIG. 5
Protocol: FIG. 2 Optimization of HTS Assay. HEK293T cells in 10 cm dishes were co-transfected with 2×-SRE luciferase reporter plasmid (3000 ng) alone or with Gα13QL (5 ng constitutive active mutant) and LARG (150 ng) expression plasmids for 5 hours. Then, the cells were plated into 96-well, and serum-starved for approx. 18 hours (0.5% Fetal Bovine Serum, DMEM medium). Cells were lysed and assayed for luciferase activity via Steady-Glo reagent (Promega) and a luminometer.
In exemplary embodiments of the present invention, HEK293T cells were transiently transfected with a 2×SRE.L-luciferase reporter plasmid that responds selectively to rho signaling (Hill et al., Cell 81:1159-1170, 1995). […] This expression plasmid is specific for rho/MKL/SRF driven gene expression. To stimulate rho, the upstream activators G13 and LARG (FIG. 1) were used. A constitutively active Gα13Q226L plasmid was co-transfected, along with an N-terminal myc-tagged LARG plasmid from Dr. Tohru Kozasa.
To use the reporter assay readout for high throughput chemical inhibition studies, the assay was modified to accommodate chemical inhibitors. Transfection was performed in 10 cm dishes with Lipofectamine 2000. Five hours after transfection, the cells were trypsinized and 30,000 cells per well were transferred into sterile white flat-bottom 96-well plates pre-spotted with 1 μl of chemical compound in DMSO (10 μM final conc). Cells were grown overnight in low serum (0.5% FBS/DMEM medium) exposed to the chemical compounds (in 1% DMSO) for approximately 18 hours before luminescence was read with Steady-Glo luciferase reagent (Promega) in a Victor II plate reader. As a positive inhibitor control, 0.5 μM of Latrunculin B was added to 8 wells per plate. In addition, 8 wells were treated with DMSO only. Latrunculin B is a marine toxin from the Red Sea sponge that is known to sequester monomeric G-actin in the cell and block rho-mediated transcriptional events (Miralles et al., Cell 113:329-342, 2003). The percent inhibition of the Gα13 QL/LARG stimulated SRE-luciferase response was calculated by setting the mean of the negative control (DMSO only) at 0% and the mean of the positive control (Latrunculin B) at 100%. The Z′ score of the assay for high throughput screening was excellent at 0.7 (FIG. 2) indicating reproducibility well-suited to HTS studies.
(§1) An exemplary screen for small molecule inhibitors of the Gα13/LARG/SRE transcriptional signaling pathway utilized a 2000 compound subset of the Maybridge Diverse Chemical Compound Library at 10 μM in the firefly luciferase assay described above. SRE transcription was stimulated by co-transfection of the constitutively active Gα13QL with LARG. […] A cutoff of 75% inhibition was chosen to identify hits for inhibition of the Gα13/LARG/SRE transcriptional signaling pathway. A total of 39 out of 2000 compounds met this criterion. […] To address this issue, a dual luciferase method with a “flash” luciferase substrate plus CMV-Renilla was used as a non-SRF-dependent reporter to eliminate toxic compounds (Table 2). This screen yielded only 4 compounds that were active and specific for the SRE.L reporter signal.

PC-3 cells [2] = test: Cell rounding assay in PC-3 cells; type: cell-based, human; settings: 30 min
Protocol: Cell Rounding Assay—The day before transfection, PC-3 cells were grown on laminin-coated coverslips in 12-well plates until […]. Cells were then transfected with 0.2 μg of EGFP cDNA. To disrupt rho signaling GFP was co-transfected with either a C3 exotoxin expression vector (0.5 μg) or with 2.0 μg of the indicated siRNA or inverted control along with 8 μl/well of LipofectAMINE 2000. At 45 h post-transfection, cultures were changed to serum-free medium and 6 h later treated with either buffer, thrombin (100 nM), or LPA (50 μM) for 30 min. Cells were then fixed with 4% paraformaldehyde for 10 min and GFP images obtained using an Olympus fluorescence microscope with a 20× objective. Fluorescent cells were counted (100-300 per coverslip) and the percentage of rounded cells determined. Cell rounding at 30 min was dose-dependent (EC50 80 nM for thrombin and 50 μM for LPA) and reversible upon removal of thrombin for 45 min.
rho stimulates several types of cytoskeletal rearrangements. […] In these studies, at 48 h after transfection, cells were stimulated with thrombin (100 nM) or LPA (50 μM) for 30 min, fixed, and fluorescence images taken. […] At 48 h post-transfection cells were stimulated with thrombin or LPA and analyzed as described above. One-hundred green cells from each coverslip were counted, and the percentage of round cells was determined. […]

[3] = tested on: PC-3 prostate cancer cells; test: DNA synthesis (BrdU incorporation) in PC-3 cells; type: cell-based, human; settings: presence of serum
Protocol: FIG. 9 Serum and LPA stimulate DNA synthesis in PC-3 cells. PC-3 cells serum starved for 24 hours were treated for an additional 24 hours in the presence of serum (10% FBS) or the indicated concentrations of LPA. BrdU was added to the medium for the last 2 hours and incorporated BrdU detected in 96-well plates by immunostaining.
FIG. 10 CCG-1423 inhibits LPA- but not FBS-stimulated DNA synthesis in PC-3 prostate cancer cells.

SKOV-3 cells [4] = test: Matrigel matrix invasion by SKOV-3 cells; type: cell-based
Protocol: FIG. 11 CCG-1423 inhibits the spontaneous matrix invasion by PC-3 cells. Top) One prostate and three ovarian cancer lines (50,000 cells per well) were lifted with trypsin, suspended in serum free medium and plated on 24-well Matrigel inserts with (solid) or without (hatched) 30 μM LPA in the lower chamber. After 24 hours, cells above the filter were wiped off and the remaining cells were fixed, stained, and counted to determine the number of cells that had invaded the Matrigel. Bottom) Matrigel invasion by PC-3 cells (-LPA) and SKOV-3 cells (+30 μM LPA) was tested in the presence of the indicated concentrations of CCG-1423.

CMV-Renilla = CMV-Renilla control reporter expression; type: cell-based
Protocol: (§2) FIG. 6 CCG-1423 inhibits both RhoA and RhoC transcriptional signals. Cells were transfected with the dual reporters SRE-Luciferase and CMV-Renilla then 6 hours later, 6 micromolar CCG-1423 was added and reporter activity measured 16 hours later.
(§3) FIG. 8 Inhibition of reporter gene transcription in PC-3 cells. CCG 1423 (10 μM) acts at the transcriptional level inhibiting SRE Luciferase stimulated by both upstream (Gα13, LARG, and RhoA-GV) and downstream signals (MKL1).
as §1
(§4) The point of action of these inhibitors in the assay was investigated by transfecting the cells with different activators of the pathway (rho, MKL1, and an activated SRF analog SRF-VP16). […] This is consistent with the known site of action of Latruculin. […] Thus, the compounds may be acting by inhibiting MKL- or SRF- or both MKL and SRF-dependent gene transcription. […] Regardless of the mechanism of action, the present invention describes a novel gene transcription inhibitor that selectively prevents MKL/SRF-mediated signals.

[5] = tested on: SKOV-3 ovarian cancer cell line; test: BrdU incorporation in SKOV-3 cells; type: cell-based
SRE Luciferase = SRE Luciferase reporter with different rho pathway activators (PC-3 cells, FIG. 8, FIG. 13); type: cell-based, human; settings: for luciferase expression induced by G13, LARG or constitutively active rhoA-GV: FIG. 8
Protocol: as §3
FIG. 13. Inhibition by CCG-1423 of three different rho pathway activators (G13, rhoA-GV, and MKL1) with no effect on control reporter plasmid CMV-Renilla.
as §4

PC-3 cells [6] = test: WST1 metabolism viability control for BrdU studies; type: cell-based, human; settings: 10 uM, 18 hours of drug treatment, absence of serum
Protocol: Even more exciting are the effects of the novel inhibitors of the present invention on PC-3 cell functions (LPA-stimulated DNA synthesis, proliferation, and invasion). More particularly, it is shown that for the highly aggressive human PC-3 prostate cancer cell line, the novel inhibitors described herein inhibit proliferation, LPA-stimulated DNA synthesis, and matrix invasion. All of these effects occur at remarkably similar concentrations (IC50 900, 830, and 600 nM, respectively). This is also very similar to the concentration needed to inhibit rho-stimulated SRE.L luciferase expression in HEK293T cells (980 nM). […] Only at high concentrations (10 uM) is there any effect on proliferation or matrix invasion and there is no inhibition of BrdU incorporation as well.

RhoA = RhoA transcriptional signal, SRE-Luciferase / CMV-Renilla dual reporters (FIG. 6); type: cell-based; settings: 6 micromolar, added 6 hours after transfection, read 16 hours later
Protocol: as §2

RhoC = RhoC transcriptional signal, SRE-Luciferase / CMV-Renilla dual reporters (FIG. 6); type: cell-based; settings: 6 micromolar, added 6 hours after transfection, read 16 hours later
Protocol: as §2

ras = test: ras-stimulated transcriptional signals (c-fos and SRE.L reporters, FIG. 14); type: cell-based; settings: for ras-stimulated transcriptional signals: c-fos reporter, FIG. 14 bottom panel
Description: FIG. 14. […] The rho reporter SRE.L can also be activated by ras (probably via rho activation).

GAL4-VP16 Luciferase = GAL4-VP16 Luciferase control reporter; type: cell-based
SKOV-3 cells [7] = test: Cell growth (WST1 absorbance) of SKOV-3 cells; type: cell-based
Protocol: PC-3 or SKOV-3 cells (2000 per well) were plated in medium containing 2% FBS. After growth overnight, the indicated concentrations of CCG-1423 were added from a DMSO stock (<1% final) and cells allowed to continue growing for an additional 7 days. Cell growth was measured by WST1 absorbance (similar to MTT). The IC50 values for PC-3 and SKOV-3 cells were 600 nM and 3 μM. The dotted line represents a no-cell blank.

[8] = tested on: RGS-rhoGEFs (LARG, PDZrhoGEF, p115rhoGEF); test: rhoGEF-stimulated SRE.L dual luciferase assay in HEK293 cells; type: cell-based, human; settings: 0.5 μM
Protocol: Luciferase Assays—Twenty-four hours post-transfection with firefly and Renilla vectors, HEK293 cells were serum-starved (0.5% serum), and then at 48 h, luciferase activity was determined using the dual luciferase assay kit (Promega, Madison, Wis.) according to the manufacturer's instructions. The ratio of firefly to Renilla luciferase counts was calculated. Data are expressed as the percent of the control value (samples without siRNA).
In these studies, each rhoGEF plasmid DNA (p115, PDZ, or LARG) was introduced into HEK293T cells using LipofectAMINE 2000 in a 96-well plate along with the dual luciferase reporters (SRE.L and pRL-TK) and a panel of different rhoGEF siRNAs (+) or inverted mutant siRNAs (−). […] Firefly/Renilla ratios for the siRNAs (+ and −) were expressed as a percent of that for buffer controls with only the rhoGEF and reporter cDNAs transfected.

Compound: lysophosphatidic acid [LPA, reference compound]
- EC50 (PC-3 cells [2]): 50000 nM

Compound: CC(ONC(=O)c1cc(C(F)(F)F)cc(C(F)(F)F)c1)C(=O)Nc1ccc(Cl)cc1 (stereo not drawn) [CCG-1423]
- FBS (serum)-stimulated DNA synthesis [3]: not inhibited until high concentrations are reached
- concentration at which there is any effect on matrix invasion (SKOV-3 cells [4]): 10 µM
- CMV-Renilla expression (CMV-Renilla; 3 μM): did not inhibit
- CMV-driven Renilla expression (CMV-Renilla; 10 μM, PC-3 cells): does not inhibit
- control reporter CMV-Renilla expression (CMV-Renilla; concentration not given): not inhibited; also recorded: no effect
- Inhibition of G13/LARG-stimulated rho transcriptional signaling [1]: Inhibition
- IC50 ([1]; HEK293T cells, dose response curves, read-out: IC50, inhibition of G13/LARG (rho-) stimulated SRE.L luciferase expression): ~1000 nM and 980 nM and 800 nM
- IC50 ([1]; HTS reporter assay, read-out: IC50, inhibition of MKL/SRF-dependent gene transcription): ~800 nM
- inhibition of BrdU incorporation [5]: no inhibition
- luciferase expression activated by SRF-VP16 (SRE Luciferase): inhibited; also recorded: able to inhibit
- luciferase expression induced by MKL (SRE Luciferase): inhibited
- SRE Luciferase stimulated by upstream (Gα13, LARG, and RhoA-GV) and downstream signals (MKL1) (SRE Luciferase; 10 μM, PC-3 cells): inhibiting
- SRF-VP16 Luciferase (SRE Luciferase; 10 μM, PC-3 cells): no effect
- luciferase expression induced by G13, LARG or constitutively active rhoA-GV (SRE Luciferase): inhibited
- three different rho pathway activators (G13, rhoA-GV, and MKL1) (SRE Luciferase; FIG. 13): Inhibition
- viable cells (WST1 metabolism) (PC-3 cells [6]): no decrease in viable cells
- RhoA transcriptional signal (SRE-Luciferase) (RhoA): blocking; also recorded: inhibits
- RhoC transcriptional signal (rhoC-stimulated luciferase expression) (RhoC): inhibits
- ras-stimulated transcriptional signals (ras): inhibition
- Gal-4-VP16 Luciferase signal (GAL4-VP16 Luciferase; 3 μM): only a slight inhibitory effect
- GAL4-VP16 Luciferase (GAL4-VP16 Luciferase; 10 μM, PC-3 cells): no effect
- concentration at which there is any effect on proliferation (SKOV-3 cells [7]): 10 µM
- IC50 (SKOV-3 cells [7]; 2% FBS, 7 days, WST1): 3000 nM

Compound: C/C1=C/C(=O)O[C@@H]2C[C@@H](CC[C@H](C)/C=C\CC1)O[C@@](O)([C@@H]1CSC(=O)N1)C2 [Latrunculin B, reference compound]
- Inhibition of G13/LARG-stimulated rho transcriptional signaling [1]: Inhibition
- luciferase expression activated by SRF-VP16 (SRE Luciferase): did not inhibit
- luciferase expression induced by G13, LARG or constitutively active rhoA-GV (SRE Luciferase): fully inhibits
- rhoGEF-stimulated luciferase signal [8]: completely eliminated
- SRE.L rho reporter signal activated by ras (ras; FIG. 14): blocked
- ras-stimulated transcriptional signals (ras): not

Second part, led by results:

- luciferase expression stimulated by transfecting in the kinase ROCK (ROCK): fully inhibited
Compound: C[C@@H](N)[C@H]1CC[C@H](C(=O)Nc2ccncc2)CC1 [Y-27632, reference compound]
- Inhibition of G13/LARG-stimulated rho transcriptional signaling [1]: only partially blocked; also recorded: Inhibition

- EC50 (PC-3 cells [2]): 80 nM
Compound: thrombin
